Peptide text beside a SMILES is read from it.

The source of these data is ChEMBL document CHEMBL1123994, “Excitatory amino acid neurotransmission” (J Med Chem, 1988).

Data set [1] is described as follows: Ionization constant was determined. In kind it is physicochemical.
Data set [2] in a line: Inhibition of Cl- dependent binding sites of AP4 receptor labeled with [3H]- glutamic acid.
The nature of data set [3]: Inhibition of specific brain peptidase.

Take `NC(CN1CC(=O)NC1=O)C(=O)O` (centres undefined): the pKa in data set [1] stood at 8.2.

In turn, `CC(=O)NC(CC(=O)O)C(=O)NC(CCC(=O)O)C(=O)O` (stereo not drawn) (Ac-Asp-Glu-OH; configuration not given here) had a Ki in data set [2] of 420 nM. The molecule `N[C@@H](Cn1oc(=O)[nH]c1=O)C(=O)O` [QUISQUALATE] registered a pKa in data set [1] of 4.2. Further, the concentration for half-maximal inhibition (IC50) in data set [3] worked out at 480 nM.

One may read the pKa as the pH at which an ionisable group is half protonated. High values mean a group that holds its proton tightly, low ones a group that gives up its proton readily. A word on the Ki: it is a measure of affinity in units of concentration, obtained from inhibition or displacement. Read a low Ki as higher affinity. In general, IC50 refers to the concentration at which inhibition is half-maximal.
